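These data come from cells grown in 96-well plates and exposed to compound for 48 hours at five concentrations. GI50 is the concentration that inhibits growth by half.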 Activity calls are given as the source filed them. Cut-off read from the data, not from the text of the source: active = GI50 up to about 1.1 µM and inactive = higher.
Columns and labels:
Test in all cases: inhibition of tumour cell growth, NCI panel, 48 h
786-0 = system: 786-0
A549 = system: A549
CAKI-1 = system: CAKI-1
COLO 205 = system: COLO 205
HCT-15 = system: HCT-15
HL-60 = system: HL-60
K562 = system: K562
LOX IMVI = system: LOX IMVI
MOLT-4 = system: MOLT-4
Malme-3M = system: Malme-3M
NCI-H226 = system: NCI-H226
OVCAR-5 = system: OVCAR-5
RXF 393 = system: RXF 393
SK-OV-3 = system: SK-OV-3
SN12C = system: SN12C
UACC-62 = system: UACC-62
SK-MEL-5 = system: SK-MEL-5

| Structure (SMILES) | GI50 (786-0) | GI50 (A549) | GI50 (CAKI-1) | GI50 (COLO 205) | GI50 (HCT-15) [µM] | GI50 (HL-60) | GI50 (K562) | GI50 (LOX IMVI) | GI50 (MOLT-4) | GI50 (Malme-3M) | GI50 (NCI-H226) | GI50 (OVCAR-5) | GI50 (RXF 393) | GI50 (SK-OV-3) | GI50 (SN12C) | GI50 (UACC-62) | GI50 (SK-MEL-5) |
| --- | --- | --- | --- | --- | --- | --- | --- | --- | --- | --- | --- | --- | --- | --- | --- | --- | --- |
| Cn1ccnc1CCc1ccc(Cl)cc1Cl | > 100 µM (inactive) | > 100 µM (inactive) | > 100 µM (inactive) | > 100 µM (inactive) | > 100 | 68.1 µM (inactive) | > 100 µM (inactive) | > 100 µM (inactive) | > 100 µM (inactive) | > 100 µM (inactive) | > 100 µM (inactive) | > 100 µM (inactive) | 35.4 µM (inactive) | > 100 µM (inactive) | > 100 µM (inactive) | > 100 µM (inactive) |  |
| COC(=O)c1cc(-c2cccn2C)c2c(c1C(=O)OC)c1ccccc1n2C | > 100 µM (inactive) | 31.8 µM (inactive) |  | 32.9 µM (inactive) | 22.4 | 37.5 µM (inactive) | 13.5 µM (inactive) | 56 µM (inactive) | 3.13 µM (inactive) | > 100 µM (inactive) |  |  | > 100 µM (inactive) | > 100 µM (inactive) | > 100 µM (inactive) | > 100 µM (inactive) | 44.3 µM (inactive) |
| C[C@H]1CC[P+](Cc2ccccc2)(c2ccccc2)C1 (some centres not stated) | > 100 µM (inactive) | > 100 µM (inactive) |  | 38 µM (inactive) | > 100 | 33.9 µM (inactive) | > 100 µM (inactive) | 71.4 µM (inactive) | > 100 µM (inactive) | 30.3 µM (inactive) | > 100 µM (inactive) | > 100 µM (inactive) | > 100 µM (inactive) | > 100 µM (inactive) | > 100 µM (inactive) | 76.6 µM (inactive) | 22.2 µM (inactive) |
| Cc1ccc(-n2nc(C(OC3OC(CO)C(O)C(O)C3O)C(O)CO)c3nc4cc(C)c(C)cc4nc32)cc1 (configuration not stated) | > 100 µM (inactive) |  |  |  | > 100 |  | > 100 µM (inactive) | > 100 µM (inactive) | > 100 µM (inactive) | > 100 µM (inactive) |  | > 100 µM (inactive) | 36.2 µM (inactive) | > 100 µM (inactive) | > 100 µM (inactive) | > 100 µM (inactive) |  |
| COC(=O)C(C(=O)C(=O)Nc1nnc(S)[nH]1)c1csc(-n2nc(-c3ccccc3)cc2-c2ccccc2)n1 (configuration not stated) | > 100 µM (inactive) | > 100 µM (inactive) | > 100 µM (inactive) | > 100 µM (inactive) | > 100 | > 100 µM (inactive) | > 100 µM (inactive) | > 100 µM (inactive) | > 100 µM (inactive) | > 100 µM (inactive) | > 100 µM (inactive) | > 100 µM (inactive) | > 100 µM (inactive) | > 100 µM (inactive) | > 100 µM (inactive) | > 100 µM (inactive) |  |
| COc1ccc2nc(-c3ccc(O)cc3)ccc2c1 | > 100 µM (inactive) | > 100 µM (inactive) |  | > 100 µM (inactive) |  | > 100 µM (inactive) | > 100 µM (inactive) | > 100 µM (inactive) | > 100 µM (inactive) | > 100 µM (inactive) | > 100 µM (inactive) | > 100 µM (inactive) | > 100 µM (inactive) | > 100 µM (inactive) | > 100 µM (inactive) | > 100 µM (inactive) | > 100 µM (inactive) |
| Cc1cccc(NC(=O)/C(=N\N)C(c2cnc3ccc([N+](=O)[O-])cc3n2)[N+](=O)[O-])c1C (configuration not stated) | > 100 µM (inactive) | > 100 µM (inactive) | > 100 µM (inactive) | > 100 µM (inactive) | 53.8 | > 100 µM (inactive) |  | 74.8 µM (inactive) | > 100 µM (inactive) | > 100 µM (inactive) | > 100 µM (inactive) |  | > 100 µM (inactive) | > 100 µM (inactive) | > 100 µM (inactive) | 66.2 µM (inactive) | > 100 µM (inactive) |
| CC1=C2[C@@H](c3ccccc3)C3C=CC2(c2ccccc23)N(C(=O)Nc2cccc3ccccc23)C1=O (some centres not stated) | > 100 µM (inactive) | > 100 µM (inactive) | > 100 µM (inactive) | > 100 µM (inactive) | > 100 | > 100 µM (inactive) | > 100 µM (inactive) | > 100 µM (inactive) | > 100 µM (inactive) | > 100 µM (inactive) |  | > 100 µM (inactive) |  | > 100 µM (inactive) | > 100 µM (inactive) | > 100 µM (inactive) | > 100 µM (inactive) |
| C[C@]12CCC(=O)C=C1CC[C@@H]1[C@@H]2C(=O)C[C@@]2(C)[C@H]1CC[C@]2(O)C(=O)CO [CORTISONE] | > 100 µM (inactive) | > 100 µM (inactive) | > 100 µM (inactive) | > 100 µM (inactive) | > 100 | > 100 µM (inactive) | > 100 µM (inactive) |  | > 100 µM (inactive) | > 100 µM (inactive) | > 100 µM (inactive) |  | > 100 µM (inactive) | > 100 µM (inactive) | > 100 µM (inactive) |  | > 100 µM (inactive) |
